Test results taken from patent US20260216085A1, “NANOPARTICLES TO ENHANCE THE EFFECTS OF DRUGS FOR THE TREATMENT OF CANCER” (UNIVERSIDAD DE GRANADA, priority 2022, published 2026).

Experiments:
[1] = Release kinetics / degradation of OLA and AA in PBS by UV-Vis; type: physicochemical; details: buffer, pH 7.4
Method: Briefly, 0.9 mg of NP was weighed into a quartz cuvette and then 3 mL of PBS solution (pH=7.4) was carefully added to the cuvette. The absorbance curve from 200 nm to 400 nm was measured continuously every half hour until the plateau was reached. The amount of OLA and ascorbic acid released was determined at wavelengths of 311 nm and 265 nm, respectively. This technique allowed simultaneous quantification of the two molecules by monitoring the absorbance at 311 nm (OLA) and 265 nm (AA) (FIG. 1).
All measurements were performed in triplicate.
The degradation of AA followed an exponential decay according to the equation y(t)=e^−t/τ, where τ corresponds to the half-life of the molecule.

PANC-1-induced tumors = assay: In vivo tumor growth and survival, mice with PANC-1-induced tumors; details: 25 mg/kg OLA intraperitoneally every 3 days, 10 cycles
Method: Male and female NOD scid gamma mice generated by the Centro de Instrumentación Científica of the University of Granada were used for the in vivo study. All mice (body weight: 20-25 g) were housed in cages with free access to water and food prior to the experiments and were maintained under controlled temperature, light and humidity (22.0±2° C., 12 h light-dark cycle and 40-70% relative humidity), in specific pathogen-free conditions with sterile atmosphere controlled by HEPA filters. The study was approved by the Ethical Committee for Animal Experimentation of the University of Granada (reference code: 16/01/2020/005) and was performed in accordance with its guidelines. Tumors were induced by subcutaneous injection of 9×10^5 cells derived from the PANC1 cell line into the right flank of NOD-SCID gamma mice. When the tumor was palpable, animals were randomly divided into four groups (n=8-10 mice per group, selecting the tumor-inducing mice): PANC1 mice treated with OLA solvent-(group I), OLA (group II), NP-ACP-AA (group III) and NP-ACP-OLA-AA (group IV). The OLA solvent was 5% DMSO, 40% PEG300, 5% Tween-80 and 50% saline and the NPs were dispersed in saline. […] Weights and deaths were carefully recorded throughout the period and tumor volume was measured with a digital caliper. Tumor volume (mm^3) was calculated as follows: V (mm^3)=(a×b2×π)/6. […]

PANC-1 = assay: Cytotoxicity, Sulforhodamine B proliferation assay; type: cell-based, Human
Method: Human pancreatic ductal adenocarcinoma cell lines MIA PaCa-2 and PANC1 and the murine pancreatic cancer cell line Panc02 were used. All cell lines were cultured in Dulbecco's modified Eagle medium (DMEM) supplemented with 10% fetal bovine serum and 1% streptomycin penicillin (Sigma-Aldrich). Cells were maintained in monolayer culture in an atmosphere of 37° C. and 5% CO2 and passaged using 0.25% trypsin and 0.02% EDTA.
Panc02, PANC-1 and MIA PaCa-2 cell lines were treated with NP-ACP-OLA and NP-ACP-OLA-AA to determine their cytotoxic effect. The toxicity of NP-ACP and NP-ACP-AA (controls) was tested in all cell lines. For this, PANC-1 cells were seeded at densities of 8×10^3 cells/well and Panc02 and MIA PaCa-2 cells at densities of 2.5×10^3 cells/well in 48-well plates, incubated overnight and exposed to DMSO (OLA solvent), OLA (in different concentration ranges depending on the cell line used), NPs with and without OLA and ascorbic acid for 72 h. Subsequently, the cells were fixed with 10% trichloroacetic acid for 20 minutes and washed three times with distilled water. […] Finally, the optical density (OD) of the dye was measured with a Titertek Multiskan colorimeter (Flow) at 492 nm. Proliferation percentages (Pf %) were calculated as: Pf %=(OD of sample/OD of negative control)×100. […]

PANC-1 cell migration = assay: Cell migration assay; type: cell-based, Human; details: PANC-1, Cl25 of OLA, monitored 72 h
Method: PANC-1 cell migration is a phenomenon related to PARP1 inhibition. To study the effect of NP-ACP-OLA-AA with respect to free OLA and OLA-NPs, the following treatment was carried out with the PANC-1 cell line. NP-ACP-AA was used as a control.
The PANC- 1 cell line was seeded in a 12-well plate (Thermo Fisher) and grown to 95-100% confluence in medium supplemented with DMEM (Sigma-Aldrich). Then, a […] was manually performed using a pipette tip. The next day, dead cells were removed using phosphate buffered saline (PBS) and the culture medium was replaced with DMEM without FBS to prevent cell proliferation. Then, Cl25 of OLA concentration (free and OLA-NPs) was added to the wells and the cells were incubated for 72 h during which the migratory process was monitored using a DM-IL LED microscope. The percentage of migration was calculated by measuring the tumor cell free area at different times using ImageJ software with the Chemotaxis and Migration Tool add-on.

SMILES | time AA remained before being degraded ([1]; 10.5 ppm) [h] | half-life at 10.5 ppm [1] [min] | decrease in tumor volume compared to untreated control mice (PANC-1-induced tumors) [%] | survival of mice (PANC-1-induced tumors) [%] | Cl50 in PANC-1 higher than in MIA PaCa-2 (PANC-1; PANC-1 vs MIA PaCa-2) [times] | Cl50 in PANC-1 higher than in Panc02 (PANC-1; PANC-1 vs Panc02) [times] | inhibition of cell migration compared to untreated cells (PANC-1 cell migration)
O=C1O[C@H]([C@@H](O)CO)C(O)=C1O [AA, ascorbic acid] | ≤ 12 | 162 | – | – | – | – | –
O=C(c1cc(Cc2n[nH]c(=O)c3ccccc23)ccc1F)N1CCN(C(=O)C2CC2)CC1 [OLA, Olaparib] | – | – | 28.3 | 44 | 8.5 | 7.5 | inhibited migration only at 72 hours
